pKi: −log10 of the molar value. Like-named read-outs stand apart in the source and are kept apart here.
Experiments:
human H3 receptor = molecular target: T1, human H3 receptor (Homo sapiens, UniProt Q9Y5N1); experiment: Human H3 radioligand binding ([3H]-N-alpha-methylhistamine, SPA); conditions: read-out: Human H3 Ki
T1 construct: expressed in transfected cells
Procedure, shortened: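 SPA competition binding on membranes from CHO cells stably expressing human H3 receptor (10 μg protein/well) with ~1 nM [3H]-N-alpha-methylhistamine and compound at 0.01 nM-30 μM. Incubation 4 h at room temperature in 50 mM Tris-HCl pH 7.4, 5 mM MgCl2, 0.1% BSA; non-specific binding defined with 10 μM clobenpropit.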

[1] = molecular target: T2, rat histamine H3 receptor (Rattus norvegicus, UniProt Q9QYN8); experiment: Rat H3 radioligand binding ([3H]-N-alpha-methylhistamine, SPA)
T2 construct: encoding the entire 445-amino-acid rat histamine H3 receptor; expressed in transfected cells; membrane preparation
T2 sequence (Q9QYN8 whole entry): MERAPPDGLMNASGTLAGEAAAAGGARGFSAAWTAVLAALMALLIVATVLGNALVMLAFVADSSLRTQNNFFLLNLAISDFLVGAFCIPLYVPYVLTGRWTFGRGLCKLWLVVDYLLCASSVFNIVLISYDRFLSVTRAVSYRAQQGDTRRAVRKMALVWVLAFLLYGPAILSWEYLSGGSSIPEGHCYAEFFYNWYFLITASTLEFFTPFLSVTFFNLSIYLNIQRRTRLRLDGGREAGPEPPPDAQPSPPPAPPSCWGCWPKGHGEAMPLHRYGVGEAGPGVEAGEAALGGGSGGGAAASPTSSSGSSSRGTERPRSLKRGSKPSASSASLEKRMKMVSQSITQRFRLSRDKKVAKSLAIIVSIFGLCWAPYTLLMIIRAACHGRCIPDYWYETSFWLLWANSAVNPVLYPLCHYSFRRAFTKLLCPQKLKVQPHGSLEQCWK
Procedure, shortened: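 Membranes from CHO-A3 cells stably expressing full-length rat H3 receptor (10 μg protein/well) incubated 4 h at room temperature, protected from light, with ~1 nM [3H]-N-alpha-methylhistamine and compound (0.01 nM-30 μM) in 50 mM Tris HCl pH 7.4, 5 mM MgCl2, 0.1% BSA. Binding read by SPA; 10 μM clobenpropit defined non-specific binding.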

[2] = rat H3 binding, Table D, read-out: Rat H3 Ki

T1 sequence (Q9Y5N1 whole entry): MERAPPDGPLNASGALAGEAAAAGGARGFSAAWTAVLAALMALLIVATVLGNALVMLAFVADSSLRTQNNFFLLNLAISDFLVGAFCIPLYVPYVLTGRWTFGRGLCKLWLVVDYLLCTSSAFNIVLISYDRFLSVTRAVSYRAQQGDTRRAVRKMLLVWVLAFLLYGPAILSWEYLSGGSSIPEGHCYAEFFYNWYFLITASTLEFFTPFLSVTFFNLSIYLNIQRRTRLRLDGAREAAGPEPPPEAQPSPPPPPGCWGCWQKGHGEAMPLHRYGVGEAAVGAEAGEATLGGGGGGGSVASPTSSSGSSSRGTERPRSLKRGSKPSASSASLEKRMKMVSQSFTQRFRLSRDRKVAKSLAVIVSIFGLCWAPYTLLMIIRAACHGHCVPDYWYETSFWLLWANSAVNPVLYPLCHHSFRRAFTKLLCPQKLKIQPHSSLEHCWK

Structure (SMILES) | pKi (human H3 receptor) | melting point | pKi ([1]; read-out: Rat H3 kI) | pKi (human H3 receptor; human H3 binding, Table D) | pKi [1, 2]
COc1ccc(-c2cc3c(cc2C)OC2(CCN(C4CCC4)CC2)OC3)cn1 [Example 544] | > 6.70 | 96 to 98 °C | > 6.70 |  | 
COC(c1ccc2c(c1)COC1(CCN(C3CCC3)CC1)O2)C1CCS(=O)(=O)CC1 (stereo not drawn) [Example 545] | > 6.70 | 178 to 180 °C | > 6.70 |  | 
Cn1ccc(-c2ccc3c(c2)COC2(CCN(C4CCC4)CC2)O3)cc1=O [Example 547] | > 6.70 | 208 to 209 °C | > 6.70 |  | 
c1ccc(COc2cc(-c3ccc4c(c3)COC3(CCN(C5CCC5)CC3)O4)ccn2)cc1 [Example 548] | > 6.70 | 120 to 125 °C | > 6.70 |  | 
CN1CC(c2ccc3c(c2)COC2(CCN(C4CCC4)CC2)O3)CCC1=O (stereo not drawn) [Example 550] | > 6.70 | 120 to 125 °C | > 6.70 |  | 
COc1ccc(-c2ccc3c(c2C)COC2(CCN(C4CCC4)CC2)O3)cn1 [Example 551] | > 6.70 | 231 to 232 °C | > 6.70 |  | 
Cc1c(-c2ccc(=O)[nH]c2)ccc2c1COC1(CCN(C3CCC3)CC1)O2 [Example 552] | > 6.70 | 246 to 249 °C | > 6.70 |  | 
O=c1ccc(-c2ccc3c(c2)COC2(CCN(C4CCC4)CC2)O3)cn1Cc1ccccc1 [Example 553] | > 6.70 | 193 to 196 °C | > 6.70 |  | 
OC1(c2ccc3c(c2)COC2(CCN(C4CCC4)CC2)O3)CCC(F)(F)CC1 [Example 554] | > 6.70 | 186 to 187 °C | > 6.70 |  | 
O=c1ccc(-c2ccc3c(c2)COC2(CCN(C4CCC4)CC2)O3)cn1CC(F)F [Example 555] | > 6.70 | 65 to 70 °C | > 6.70 |  | 
COC1(c2ccc3c(c2)COC2(CCN(C4CCC4)CC2)O3)CCC(F)(F)CC1 [Example 556] | > 6.70 | 116 to 118 °C | > 6.70 |  | 
Cc1c(-c2cc[nH]c(=O)c2)ccc2c1COC1(CCN(C3CCC3)CC1)O2 [Example 558] | > 6.70 | > 300 °C | > 6.70 |  | 
COC1(c2ccc3c(c2)COC2(CCN(C4CCC4)CC2)O3)CCC1 [Example 559] | > 6.70 | < 50 °C | > 6.70 |  | 
O=C1CCC(c2ccc3c(c2)COC2(CCN(C4CCC4)CC2)O3)CN1CC(F)F (stereo not drawn) [Example 560] | 6.00 to 6.70 | 120 to 126 °C | 6.00 to 6.70 |  | 
C=CCOC1(c2ccc3c(c2)COC2(CCN(C4CCC4)CC2)O3)CC(C(=O)N2CCCC2)C1 (stereo not drawn) [Example 561] | 6.00 to 6.70 | 49 to 51 °C | 6.00 to 6.70 |  | 
CC(C)N1CC(c2ccc3c(c2)COC2(CCN(C4CCC4)CC2)O3)CCC1=O (stereo not drawn) [Example 563] | > 6.70 | 129 to 134 °C | > 6.70 |  | 
O=C1CC(c2ccc3c(c2)COC2(CCN(C4CCC4)CC2)O3)CCN1 (stereo not drawn) [Example 565] | > 6.70 | 182 to 184 °C | > 6.70 |  | 
Nc1ccc(-c2ccc3c(c2)COC2(CCN(C4CCC4)CC2)O3)cn1 [Example 566] | > 6.70 | 201 to 203 °C | > 6.70 |  | 
O=C(C1CC(O)(c2ccc3c(c2)CCC2(CCN(C4CCC4)CC2)O3)C1)N1CCCC1 (stereo not drawn) [Example 569] | > 6.70 | 180 to 181 °C | > 6.70 |  | 
O=C(O)c1cc(-c2ccc3c(c2)COC2(CCN(C4CCC4)CC2)O3)cs1 [Example 570] |  | 230 to 240 °C (dec.) |  | > 6.70 | > 6.70
CC(C)C(=O)NC1CCN(c2ccc3c(c2)CCC2(CCN(C4CCC4)CC2)O3)CC1 [Example 571] |  | 199.3 to 201.2 °C |  | > 6.70 | > 6.70
O=C(NC[C@H]1CCCO1)c1ccc(-c2ccc3c(c2)CCC2(CCN(C4CCC4)CC2)O3)cc1Cl [Example 572] |  | 62 to 64 °C |  | > 6.70 | > 6.70
CN(C)C(=O)NC1CCN(c2ccc3c(c2)CCC2(CCN(C4CCC4)CC2)O3)CC1 [Example 573] |  | 204.2 to 206.4 °C |  | > 6.70 | > 6.70
c1ncc(COc2ccc3c(c2)CCC2(CCN(C4CCC4)CC2)O3)s1 [Example 574] |  | 85 to 87 °C |  | > 6.70 | > 6.70

Further lines, results first:

pKi (human H3 receptor) | melting point | pKi ([1]; read-out: Rat H3 kI) | pKi (human H3 receptor; human H3 binding, Table D) | pKi [1, 2] | Structure (SMILES)
 | 101 to 104 °C |  | > 6.70 | > 6.70 | COCCN(C)C(=O)c1ccc(-c2ccc3c(c2)CCC2(CCN(C4CCC4)CC2)O3)cc1Cl [Example 575]
 | 230 to 232 °C |  | > 6.70 | > 6.70 | CN(C)C(=O)N1CCC(COc2ccc3c(c2)CCC2(CCN(C4CCC4)CC2)O3)CC1 [Example 576]
 | 105 to 107 °C |  | > 6.70 | > 6.70 | COCCN(C)C(=O)c1ccc(-c2ccc3c(c2)COC2(CCN(C4CCC4)CC2)O3)cc1Cl [Example 577]
 | 145 to 146 °C |  | > 6.70 | > 6.70 | COCCNC(=O)c1cc(-c2ccc3c(c2)COC2(CCN(C4CCC4)CC2)O3)cs1 [Example 578]
 | 155 to 157 °C |  | > 6.70 | > 6.70 | O=C(NC[C@H]1CCCO1)c1ccc(-c2ccc3c(c2)COC2(CCN(C4CCC4)CC2)O3)cc1Cl [Example 579]
 | 196 to 198 °C |  | > 6.70 | > 6.70 | O=C(N[C@H]1CCOC1)c1ccc(-c2ccc3c(c2)CCC2(CCN(C4CCC4)CC2)O3)cc1 [Example 580]
 | 100 to 103 °C |  | > 6.70 | 6.00 to 6.70 | CNC(=O)c1cc(-c2ccc3c(c2)CCC2(CCN(C4CCC4)C2)O3)ccc1Cl (stereo not drawn) [Example 581]
 | 89 to 91 °C |  | > 6.70 | > 6.70 | CNC(=O)c1cc(-c2ccc3c(c2)CCC2(CCN(C4CCC4)CC2)O3)ccc1Cl [Example 582]
 | 78.4 to 80.2 °C |  | > 6.70 | > 6.70 | O=S(=O)(c1ccccc1)C1CCN(c2ccc3c(c2)COC2(CCN(C4CCC4)CC2)O3)CC1 [Example 583]
 | 198 to 200 °C |  | > 6.70 | > 6.70 | CNC(=O)c1cc(-c2ccc3c(c2)COC2(CCN(C4CCC4)CC2)O3)ccc1Cl [Example 584]
 | 159 to 161 °C |  | > 6.70 | > 6.70 | O=C(NC[C@@H]1CCCO1)c1ccc(-c2ccc3c(c2)COC2(CCN(C4CCC4)CC2)O3)cc1Cl [Example 585]
 | 68.5 to 70.2 °C |  | > 6.70 | > 6.70 | CN(C)C(=O)CC1CCN(c2ccc3c(c2)COC2(CCN(C4CCC4)CC2)O3)CC1 [Example 586]
 | 155 to 156 °C |  | > 6.70 | > 6.70 | CC(C)NC(=O)c1ccc(-c2ccc3c(c2)CCC2(CCN(C4CCC4)CC2)O3)cc1Cl [Example 587]
 | 150.1 to 152.2 °C |  | > 6.70 | > 6.70 | COCCNC(=O)CC1CCN(c2ccc3c(c2)COC2(CCN(C4CCC4)CC2)O3)CC1 [Example 588]
 | 128 to 130 °C |  | > 6.70 | > 6.70 | O=C(NC[C@@H]1CCCO1)c1ccc(-c2ccc3c(c2)COC2(CCN(C4CCC4)CC2)O3)cc1F [Example 589]
 | 175 to 177 °C |  | > 6.70 | > 6.70 | CNC(=O)c1ccc(-c2ccc3c(c2)COC2(CCN(C4CCC4)CC2)O3)nc1 [Example 590]
 | 120 to 122 °C |  | > 6.70 | > 6.70 | COC[C@H](C)NC(=O)c1ccc(-c2ccc3c(c2)CCC2(CCN(C4CCC4)CC2)O3)cc1Cl [Example 591]
 | 292 to 294 °C |  | > 6.70 | > 6.70 | c1cc2c(cc1OCC1CCNCC1)CCC1(CCN(C3CCC3)CC1)O2 [Example 592]
 | 187 to 189 °C |  | > 6.70 | 6.00 to 6.70 | CN(C)C(=O)/C=C/c1ccc2c(c1)CCC1(CCN(C3CCC3)CC1)O2 [Example 594]
 | 192 to 194 °C |  | > 6.70 | > 6.70 | CNC(=O)c1ccc(-c2ccc3c(c2)CCC2(CCN(C4CCC4)CC2)O3)nc1 [Example 595]
 | 186 to 187.5 °C |  | > 6.70 | > 6.70 | CC(C)NC(=O)c1ccc(-c2ccc3c(c2)COC2(CCN(C4CCC4)CC2)O3)cc1Cl [Example 596]
 | 150 to 152 °C |  | > 6.70 | > 6.70 | COC[C@H](C)NC(=O)c1ccc(-c2ccc3c(c2)COC2(CCN(C4CCC4)CC2)O3)cc1Cl [Example 598]
 | 142 to 145 °C |  | > 6.70 | > 6.70 | O=C(NC[C@@H]1CCCO1)c1c(F)cc(-c2ccc3c(c2)COC2(CCN(C4CCC4)CC2)O3)cc1F [Example 599]
 | 205 to 207 °C |  | > 6.70 | > 6.70 | O=C(N[C@H]1CCOC1)c1ccc(-c2ccc3c(c2)COC2(CCN(C4CCC4)CC2)O3)cc1 [Example 600]
 | 88.9 to 91.4 °C |  | > 6.70 | > 6.70 | OCC1CCN(c2ccc3c(c2)COC2(CCN(C4CCC4)CC2)O3)CC1 [Example 601]
 | 183 to 185 °C |  | > 6.70 | > 6.70 | CN(C)C(=O)c1cccc(COc2ccc3c(c2)CCC2(CCN(C4CCC4)CC2)O3)c1 [Example 602]

Source: patent publication US8513232B2, “Substituted spirocyclic piperidine derivatives as histamine-3 (H3) receptor ligands” (Cephalon, Inc., priority 2008, dated 2013)
